According to patent US20250134889A1, “TARGETING IRE1 KINASE AND FMRP FOR PROPHYLAXIS, MANAGEMENT AND TREATMENT OF ATHEROSCLEROSIS” (CEDARS-SINAI MEDICAL CENTER, priority 2022, published 2025):

System: peritoneal macrophages
Assay: In vivo foam cell formation assay
Design: species or system mouse
Details: Apoe-/- mice, WD 12 weeks, 30 mg/kg/day in the last 4 weeks, ORO staining
Experimental: FIGS. 2A-2M depict that FMRP deficiency enhances RCT while reducing foam cell formation in vivo. (Data are mean±SEM. Unpaired t-test with Welch's correction. * P≤0.05, ** P≤0.01, *** P≤0.001.) • 2A. Fmr1^+/+ and Fmr1^−/− mice were injected with AAV_PCSK9 and fed with 16 weeks of WD. Residential PM were stained with Oil Red O (ORO) and imaged (n=7; Scale bar=50 μm). • 2B. Apoe-/mice were fed with WD (12 weeks) and injected with vehicle (DMSO) or AMG-18 (30 mg/kg/day) in the last 4 weeks of WD. Residential PM were stained with ORO and imaged (n=5; Scale bar=50 μm). • 2C-2E. […] Macrophages were pre-loaded with fluorescently labeled cholesterol (16 hours) followed by incubation in efflux medium including APOA1 (25 μg/ml) or HDL (50 μg/ml) as acceptors for 6 hours. % Efflux was calculated as cholesterol signal in medium/cholesterol signal in medium and cell: Cholesterol efflux in (2F) Fmr1+/+ and Fmr1^−/− BMDM (n=4) and in (2G) BMDM that were pre-treated either with DMSO or AMG-18 (5 μM; 1 hour) (n=4). • 2H-2K. […] Protein lysates from macrophages used in FIG. 2C were analyzed by western blotting using specific antibodies for FMRP and β-Actin. • 2M. […]

Compound: Cc1ccc2c(NS(=O)(=O)c3ccccc3Cl)cccc2c1Oc1ncccc1-c1ccnc(N[C@H]2CCCNC2)n1 [AMG-18]
- foam cell formation in the peritoneum: reduced
